In patent US8188128B2, “Opioid receptor subtype-selective agents” (The University of Medicine and Dentistry of New Jersey, priority 2005, dated 2012):
Like-named read-outs stand apart in the source and are kept apart here.

Key:
δ-receptor [1] = target: T1, δ-receptor (Mus musculus, UniProt P32300); details: literature values for comparison compounds; cited from earlier work
human kappa receptor = target: T2, human kappa receptor (Homo sapiens, UniProt P41145); experiment: Opioid receptor binding assay, κ, [3H]U69593, HEK 293 cell membranes
T2 construct: expressed in transfected cells
Description: (§1) Receptor binding assay: Cell membrane preparations were obtained from HEK 293-stable transfectants expressing either the murine δ or μ or the human κ receptor. Opioid receptor binding assays were conducted in duplicate on membrane preparations that had been resuspended in 50 mM Tris-HCl, pH 7.5, utilizing [^3H]DPDPE, [^3H]DAMGO and [^3H]U69593 as radiologand for δ, μ, and κ respectively and 10 μM cyclazocine to define non-specific binding. Following a 1 hour incubation on ice, binding assays were terminated by filtration through Whatman GF/B filters. Filters were soaked in Ecoscint liquid scintillation solution (National Diagnostics, Manville, N.J.) and filter-bound radioactivity was measured using a Packard Tri-Carb 2100 TR liquid scintillation analyzer. Receptor binding data was analyzed by non-linear regression of saturation and competition curves using Prisim 3.0 software (GraphPad Software, San Diego, Calif.). Protein concentrations were determined with the Bio-Rad protein using bovine serum albumin as the standard.

δ-receptor [2] = target: T1, δ-receptor; experiment: Function at δ receptor (receptor down regulation assay, HEK 293 cells expressing FLAG-tagged δ-receptor); format: cell-based; set-up: FLAG; expressed in transfected cells; host or cells: HEK 293 (G418 selection); details: for Function at δ: compounds of Formula I
Description: Receptor down regulation assays: HEK 293 cells expressing the FLAG-tagged δ-receptor were grown to near confluence in 100 mm dishes in DMEM media supplemented with 10% fetal calf serum and 0.25 mg/ml G418. Media was replaced with serum-free media prior to overnight incubation with 10 μM or 20 μM of DOP or control compound. Media was aspirated and cell washed twice with cold PBS. Cell homogenates were collected and further washed trice with 50 mM TRIS-HCl, pH 7.5. Protein concentration was measured using Bio-Rad Bradford reagent and equal amount of protein (50 μg) was used for binding assay. Binding assays were performed using [^3H]diprenorphine as the radioactive ligand. Binding assays were conducted as described above.

delta receptor = target: T3, delta receptor (Mus musculus, UniProt P32300); experiment: Opioid receptor binding assay, δ, [3H]DPDPE, HEK 293 cell membranes; set-up: species or system rat; details: for Selectivity κ/δ / Selectivity μ/δ: ratio of IC50 values; for IC50: compounds of Formula II, Table III
T3 construct: expressed in transfected cells
Description: as §1

mu opioid receptor = target: T4, mu opioid receptor (Mus musculus, UniProt P42866); experiment: Function at the mu opioid receptor; details: Table III
T4 construct: expressed in transfected cells

kappa opioid receptor = target: T5, kappa opioid receptor (Homo sapiens, UniProt P41145); experiment: Function at the kappa opioid receptor; details: Table III
T5 construct: expressed in transfected cells

mu receptor = target: T6, mu receptor (Mus musculus, UniProt P42866); experiment: Opioid receptor binding assay, μ, [3H]DAMGO, HEK 293 cell membranes; set-up: species or system rat; details: compounds of Formula II, Table III
T6 construct: expressed in transfected cells
Description: as §1, with “Opioid” for “Receptor binding assay: Cell membrane preparations were obtained from HEK 293-stable transfectants expressing either the murine δ or μ or the human κ receptor. Opioid”

[3] = inhibition of [3H]U69593, HEK 293 cell membrane, compounds of Formula I, read-out: IC50 (nM) κ
[4] = compounds of Formula II, Table III, read-out: IC50 κ

T1 sequence (P32300 whole entry): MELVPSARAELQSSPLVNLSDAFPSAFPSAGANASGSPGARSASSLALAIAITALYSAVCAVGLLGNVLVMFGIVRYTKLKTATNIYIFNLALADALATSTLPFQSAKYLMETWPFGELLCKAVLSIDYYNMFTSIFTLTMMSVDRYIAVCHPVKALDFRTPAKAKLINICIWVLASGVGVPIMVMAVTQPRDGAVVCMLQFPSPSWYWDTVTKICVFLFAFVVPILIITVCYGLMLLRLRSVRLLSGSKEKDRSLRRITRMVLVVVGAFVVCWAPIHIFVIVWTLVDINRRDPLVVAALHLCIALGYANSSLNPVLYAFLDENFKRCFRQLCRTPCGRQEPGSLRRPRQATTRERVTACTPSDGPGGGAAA
T3 sequence (P32300 whole entry): as above
T2 sequence (P41145 whole entry): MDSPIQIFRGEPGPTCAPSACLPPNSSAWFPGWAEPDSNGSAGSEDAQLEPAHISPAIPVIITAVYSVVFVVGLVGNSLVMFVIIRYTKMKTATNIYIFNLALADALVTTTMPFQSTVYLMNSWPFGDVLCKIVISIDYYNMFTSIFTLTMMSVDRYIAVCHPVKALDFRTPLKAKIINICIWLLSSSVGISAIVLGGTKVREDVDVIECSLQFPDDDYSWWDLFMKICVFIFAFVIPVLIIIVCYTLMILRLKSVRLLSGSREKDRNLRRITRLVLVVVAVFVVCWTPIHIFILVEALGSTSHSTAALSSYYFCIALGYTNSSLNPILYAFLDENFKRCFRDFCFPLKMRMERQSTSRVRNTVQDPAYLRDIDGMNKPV
T6 sequence (P42866 whole entry): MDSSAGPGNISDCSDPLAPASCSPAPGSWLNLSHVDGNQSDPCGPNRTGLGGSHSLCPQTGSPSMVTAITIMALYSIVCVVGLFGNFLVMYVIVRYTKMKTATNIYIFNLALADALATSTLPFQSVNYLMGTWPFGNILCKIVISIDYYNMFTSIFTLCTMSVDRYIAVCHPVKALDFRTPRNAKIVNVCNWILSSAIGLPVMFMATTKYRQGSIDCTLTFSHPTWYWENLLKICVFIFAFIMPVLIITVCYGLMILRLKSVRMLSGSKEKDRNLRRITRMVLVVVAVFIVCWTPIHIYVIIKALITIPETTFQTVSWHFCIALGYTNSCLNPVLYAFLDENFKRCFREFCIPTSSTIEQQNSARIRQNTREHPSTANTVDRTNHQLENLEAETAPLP
T4 sequence (P42866 whole entry): as above
T5 sequence (P41145 whole entry): as the sequence (P41145 whole entry) above

SMILES	IC50 (human kappa receptor; [3])	Function at δ (δ-receptor [2])	IC50 (human kappa receptor; [4])	IC50 (mu receptor)	IC50 (delta receptor)	Selectivity κ/δ (delta receptor)	Selectivity μ/δ (delta receptor)	other results
C=CCN1C[C@H](C)N([C@H](c2ccc(C(=O)N(CC)CC)cc2)c2cccc(OC)c2)C[C@H]1C [SNC80]	–	–	–	–	–	–	–	Function at δ (δ-receptor [1]): Agonist
CN(C)c1nnc(-c2cccc(O)c2)n1-c1cccc(C(C)(C)C)c1 [DST10S]	–	–	23 nM	118 nM	114 nM	–	–	Function at the mu opioid receptor (mu opioid receptor): moderate to strong antagonist; Function at the kappa opioid receptor (kappa opioid receptor): particularly strong agonist; Function at the delta opioid receptor (δ-receptor [2]; compound of Formula II, Table III): moderate to strong antagonist
Cc1ccc(-c2nc(CN(C)C)nn2-c2cccc(O)c2)c(C)c1 [DOP110]	351 ± 95 nM	Agonist	–	–	–	1.3	8.9	–
CN(C)c1nnc(-c2cccc(O)c2)n1-c1ccc(C(C)(C)C)cc1 [DST8S]	–	–	2130 nM	991 nM	2780 nM	–	–	–

Further lines, with some results ahead:

IC50 (human kappa receptor; [3])	Function at δ (δ-receptor [2])	IC50 (human kappa receptor; [4])	IC50 (mu receptor)	IC50 (delta receptor)	SMILES	Selectivity κ/δ (delta receptor)	Selectivity μ/δ (delta receptor)	other results
341 ± 20 nM	Agonist	–	–	–	CN(C)Cc1nc(-c2cccc(C(C)(C)C)c2)n(-c2cccc(O)c2)n1 [DOP106, 3-[5-(3-tert-Butyl-phenyl)-3-dimethylaminomethyl-[1,2,4,]triazole-1-yl]-phenol]	7	50	–
3850 ± 311 nM	Agonist	–	–	–	CN(C)Cc1nc(-c2ccc(C(C)(C)C)cc2)n(-c2cccc(O)c2)n1 [DOP108, 3-[5-(4-tert-Butyl-phenyl)-3-dimethylaminomethyl-[1,2,4,]triazole-1-yl]-phenol]	–	–	–
